This passage reports TGI results from PubChem BioAssay (NCI).

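Each compound was tested at five concentrations against cells in 96-well plates for 48 hours. The concentration for full growth arrest is given as TGI.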

Common to all, as to assay: NCI tumour cell line growth inhibition, 48 h
For assay [1], the system named is CAKI-1 renal.
The test system of assay [2] is HS 578T breast.
Assay [3] relates to MOLT-4 leukemia.
In assay [4] the test system is OVCAR-4 ovarian.
For assay [5], the system named is PC-3 prostate.
In assay [6] the test system is SF-295 CNS.
Assay [7] deals with T-47D breast.

As for `CCOC(=O)CCC(C(=O)OCC)n1nnc2cc(Nc3c(C)[n+]([O-])c4cc(Cl)ccc4[n+]3[O-])ccc21` (stereo unspecified), the TGI in assay [1], in assay [2], in assay [3], in assay [4], in assay [5] and in assay [6] was above 100 µM each time. Further, in assay [7], the TGI was above 100 µM.
With `Cc1cc(S(=O)(=O)NC2=NCc3c(F)cccc3N2)c(S)cc1Cl`, the TGI in assay [1], in assay [2], in assay [3], in assay [4], in assay [5] and in assay [6] was above 100 µM each time. This molecule also yielded a TGI in assay [7] above 100 µM.
With `Nc1ncnc2c1ncn2CCCNO`, the TGI in assay [1], in assay [2], in assay [3], in assay [4], in assay [5] and in assay [6] was above 100 µM in each case. This molecule also yielded a TGI in assay [7] above 100 µM.
For the molecule `CC[P+](c1ccccc1)(N(C)C)N(C)C`, the TGI in assay [1], in assay [2], in assay [3], in assay [4], in assay [5] and in assay [6] was above 100 µM each time. Also, the TGI in assay [7] was above 100 µM.
As to `CCOC(=O)NCC(=O)NCC(=O)NCC(N)=O`, the TGI in assay [1], in assay [2], in assay [3], in assay [4], in assay [5] and in assay [6] was above 100 µM throughout. This molecule displayed a TGI in assay [7] above 100 µM.
For `COc1cc2c(cc1OCCN1CCN(CCOc3cc4c(cc3OC)C(=O)N3CCC[C@H]3C=N4)CC1)N=C[C@@H]1CCCN1C2=O`, the TGI in assay [1] was 49.3 µM; in assay [2], above 100 µM; in assay [3] it was 6.78 µM; in assay [4], above 100 µM; in assay [5], above 93.9 µM; in assay [6] it was 67.3 µM. In addition, the TGI in assay [7] was above 100 µM.
Turning to `CN=C1C=C(/N=C2/C=C(N/C(=C\C#N)C(C)(C)O)OC2(C)C)OC1(C)C`, the TGI in assay [1] was above 67.1 µM; in assay [2] it was above 100 µM; in assay [3], above 100 µM; in assay [4], above 100 µM; in assay [5], above 100 µM; in assay [6], above 100 µM. In assay [7], this molecule gave a TGI above 100 µM.
As to `C/C(=C\C(=O)O)C(=O)N(C)c1ccccc1I`, the TGI in assay [1], in assay [2], in assay [3], in assay [4], in assay [5] and in assay [6] was above 100 µM throughout. The same molecule had a TGI in assay [7] above 100 µM.
As for `N#Cc1cc2c(n(C3OC(CO)C(O)C(O)C3O)c1=S)CCC2` (stereo unspecified), the TGI in assay [1], in assay [2], in assay [3], in assay [4], in assay [5] and in assay [6] was above 100 µM throughout. The same molecule yielded a TGI in assay [7] above 100 µM.
On to `COC(=O)c1sc2c(Cl)c(Cl)sc2c1Cl`, for which the TGI in assay [1], in assay [2], in assay [3], in assay [4], in assay [5] and in assay [6] was above 100 µM each time. Moreover, the TGI in assay [7] is above 100 µM.
As to `COc1ccccc1-c1cc(=O)c2cccnc2[nH]1`, the TGI in assay [1], in assay [2], in assay [3], in assay [4], in assay [5] and in assay [6] was above 100 µM in each case. The same molecule came in with a TGI in assay [7] above 100 µM.
With `CCn1c(-c2cc3ccccc3cc2OC(C)=O)n[nH]c1=S`, the TGI was above 100 µM in assay [1]; 54.6 µM in assay [2]; 51.3 µM in assay [3]; above 100 µM in assay [4]; 39.2 µM in assay [5]; above 100 µM in assay [6]. This molecule also had a TGI in assay [7] of 43.3 µM.
Take `CC(C)(C)c1cc(C(C)(C)C)c2sc(=O)oc2c1O`: the TGI in assay [1] is 25.3 µM; in assay [2], 31.4 µM; in assay [3] it was above 100 µM; in assay [4], 27.6 µM; in assay [5], 28 µM; in assay [6], 23.9 µM. For the same molecule, in assay [7], the TGI is 19.8 µM.
As to `CC1(c2ccc(Cl)cc2)c2ccccc2C(=O)N1CCCN1C(=O)c2ccccc2C1=O` (stereo unspecified), the TGI in assay [1] was above 100 µM; in assay [2], above 100 µM; in assay [3], above 100 µM; in assay [4] it was above 100 µM; in assay [5] it was above 100 µM; in assay [6], 67 µM. This molecule returned a TGI in assay [7] above 100 µM.
Consider `O=C(CCCCCCCCC(=O)N1C(=O)CC(=O)N(c2ccc(Cl)cc2)C1=S)N1C(=O)CC(=O)N(c2ccc(Cl)cc2)C1=S`, for which the TGI in assay [1] is above 100 µM; in assay [2], above 100 µM; in assay [3], 75.6 µM; in assay [4], above 100 µM; in assay [5], above 100 µM; in assay [6], above 100 µM. In assay [7], the TGI was above 100 µM.
`COc1ccc(C=C2C(C)=NN(c3cccc(Cl)c3)C23C(Cl)C(=O)N3c2nc3ccccc3s2)cc1` (stereo unspecified): the TGI in assay [1] turned out to be 61 µM; in assay [2] it was 74.1 µM; in assay [3], 68 µM; in assay [4] it was 93.5 µM; in assay [5], 39.3 µM; in assay [6] it was 50.9 µM. The TGI in assay [7] is above 100 µM.
For `CC(C)NC(=O)OCCN=C1c2ccccc2C(Br)C(Br)c2ccccc21` (stereo unspecified), the TGI is 19.7 µM in assay [1]; 31.4 µM in assay [2]; 14.9 µM in assay [3]; 33.6 µM in assay [4]; above 48.8 µM in assay [5]; 42 µM in assay [6]. Also, the TGI in assay [7] was found to be 18.4 µM.
With `COc1cc2c(cc1OC)C(C1CC1)ON(C)CC2` (stereo unspecified), the TGI in assay [1], in assay [2], in assay [3], in assay [4], in assay [5] and in assay [6] was above 100 µM in each case. This molecule showed a TGI in assay [7] above 100 µM.
